Tests used:
[1] = target: T1, mitochondrial FOF1 ATPase (complex V) (Rattus norvegicus, UniProt P10719+P15999); test: ATP hydrolysis by FOF1 ATPase in submitochondrial particles; format: biochemical, Wistar rats
T1 construct: These particles are obtained from isolated mitochondria from Wistar rats' liver; from tissue; host or cells: submitochondrial particles from Wistar rat liver mitochondria (sonicated)
Source text: These particles are obtained from isolated mitochondria from Wistar rats' liver, submitted to an ultrasound process to break their membranes. Thus, so-called mitoplasts or submitchondrial particles are formed with inverted portions of the inner membrane that preserve the ATP hydrolytic activity of the FOF1 ATPase in the presence of external ATP.

[2] = target: T2, mitochondrial uniporter calcium excipient (Homo sapiens, UniProt Q8NE86); test: Mitochondrial calcium capture in isolated mitochondria (Calcium Green 5N); format: biochemical
T2 construct: This experiment is also carried out with isolated mitochondria (0.5 mg/ml); from tissue
T2 sequence (Q8NE86 51-351): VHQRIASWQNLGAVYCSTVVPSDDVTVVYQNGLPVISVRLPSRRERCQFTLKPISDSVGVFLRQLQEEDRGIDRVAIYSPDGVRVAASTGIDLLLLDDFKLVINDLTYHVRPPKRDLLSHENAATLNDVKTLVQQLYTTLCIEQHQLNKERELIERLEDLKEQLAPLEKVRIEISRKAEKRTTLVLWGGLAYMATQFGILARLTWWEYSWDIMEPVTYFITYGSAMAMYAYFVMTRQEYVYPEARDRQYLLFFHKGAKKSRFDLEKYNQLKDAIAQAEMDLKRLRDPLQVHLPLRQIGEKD
T2 sequence (Q9H4I9 48-107 partner limits assumed): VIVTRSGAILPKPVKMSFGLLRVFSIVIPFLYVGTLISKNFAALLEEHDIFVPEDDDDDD
Protocol: This experiment is also carried out with isolated mitochondria (0.5 mg/ml) energized with succinate 5 mM+rotenone 2.5 μM and the presence of Calcium Green 5N fluorescent marker which increases fluorescence in the presence of calcium. […] The excitation/emission wave lengths used for Calcium Green 5N are 506/531 nm, respectively.

[3] = tested on: cerebellar granules damaged with glutamate; test: Cytoprotective effect in cerebellar granules exposed to glutamate; format: cell-based
Source text: For neuro-protective in vitro evaluation, we used PC12 cell cultures exposed to damage from glutamate and hydrogen peroxide, as well as cerebellar granules damaged with glutamate.
Diazepam (DZP), derivative of commercial 1,4-benzodiazepine.

[4] = tested on: mitochondrial permeability transition (MPT); test: Mitochondrial permeability transition in isolated mitochondria (absorbance decrease at 540 nm); format: biochemical; details: inducers Ca2+ 50 μM and phosphate (Pi)
Source text: Mitochondrial permeability transition can be estimated by absorbance decrease of a mitochondrial suspension at 540 nm.

[5] = tested on: mitochondrial membrane potential; test: Dissipation of mitochondrial membrane potential (safranine O fluorescence); format: biochemical; details: Ca2+ 50 μM and phosphate (Pi) 2 mM
Protocol: This membrane potential can be fluorimetrically estimated by using safranine O. This marker is captured in the suspension by energized mitochondria (in the presence of substrates of the electronic transportation chain, such as succinate) provoking a fluorescence decrease. When the MPT process takes place, safranine is again released to the environment, thus increasing, fluorescence. […] In a dosage dependent manner, JM-20 inhibits potential loss, being the maximum inhibitory level at 15 μM (orange line).
Safranine (10 μM) is captured by energized mitochondria (succinate 5 mM rotenone 2.5 μM). In the presence of MPT inducers such as Ca^2+ and Pi, an immediate loss of mitochondrial membrane potential takes place (black line) that is prevented by the classic MPT inhibitor, CsA (red line) and by JM-20 (green, blue and orange lines) in a dosage dependent manner. The excitation/emission wave length used for safranine are 495/586 nm, respectively. A mitoprotective behavior similar to the one reported in the previous Table was found in the other molecules evaluated.

With `CN1C(=O)CN=C(c2ccccc2)c2cc(Cl)ccc21` [Diazepam, reference compound] the “inhibition of the hydrolytic activity of the mitochondrial enzyme (in words)” value [1] was “Neither Nifedipine: nor Diazepam inhibited” and the “inhibition of calcium captation by the organelle” value ([2]; 20 μM, isolated mitochondria 0.5 mg/ml, 20 μM Ca2+) was “neither nifedipine (Nif 20 μM_light blue line) nor diazepam (DZP 20 μM), or the combination of both (Nif+DZP 1.0 μM—pink line) succeeded in inhibiting”.

`N.N.N.N.N.N.N.N.N.N.N.N.N.N.[Cl-].[Cl-].[Cl-].[Cl-].[Cl-].[Cl-].[O-2].[O-2].[Ru+3].[Ru+3].[Ru+4]` [Ruthenium-red, reference compound] was tested, and the “inhibition of calcium captation by the organelle” value ([2]; 1 μM, isolated mitochondria 0.5 mg/ml, 20 μM Ca2+) was “calcium captation does not occur”.

In the case of “4-(2′-Nitrophenyl)-3-Carbonylalcohoxi-2-Methyl-1, 4-Dihydropyrido (2,3-b-5,6-e)-1,4-Benzodiazepine [JM-20]”, the “cytoprotective effect at concentrations lower than that of Nifedipine and Diazepam independently” value [3] is reported as 100 times, the “MIC: concentration at which total inhibition of mitochondrial permeability transition took place” value [4] is reported as 15 µM and the IC50 ([1]; submitochondrial particles from Wistar rats' liver mitochondria, read-out: mean inhibitory concentration (IC50) of ATP hydrolysis) is reported as 10.2 µM. The “inhibition of calcium mitochondrial uptake” value ([2]; 10 μM, isolated mitochondria 0.5 mg/ml, 20 μM Ca2+) was “significantly inhibits”, the “inhibition of the mitochondrial calcium transmitter compared with Nifedipine” value ([2]; FIG. 25) was “more powerful in inhibiting the transmitter than other dihydropyridines (Nif)” and the “maximum inhibitory level for loss of mitochondrial membrane potential” value [5] was 15 µM.
